# Assay results: BindingDB's records for doi:10.1021/jm970857f (Eli Lilly, 1998)
# Structures can show the parent of a compound that is named as a salt.
# Target: T1, Alpha-1A adrenergic receptor (Rattus norvegicus, UniProt P43140)
# T1 sequence (P43140 whole entry): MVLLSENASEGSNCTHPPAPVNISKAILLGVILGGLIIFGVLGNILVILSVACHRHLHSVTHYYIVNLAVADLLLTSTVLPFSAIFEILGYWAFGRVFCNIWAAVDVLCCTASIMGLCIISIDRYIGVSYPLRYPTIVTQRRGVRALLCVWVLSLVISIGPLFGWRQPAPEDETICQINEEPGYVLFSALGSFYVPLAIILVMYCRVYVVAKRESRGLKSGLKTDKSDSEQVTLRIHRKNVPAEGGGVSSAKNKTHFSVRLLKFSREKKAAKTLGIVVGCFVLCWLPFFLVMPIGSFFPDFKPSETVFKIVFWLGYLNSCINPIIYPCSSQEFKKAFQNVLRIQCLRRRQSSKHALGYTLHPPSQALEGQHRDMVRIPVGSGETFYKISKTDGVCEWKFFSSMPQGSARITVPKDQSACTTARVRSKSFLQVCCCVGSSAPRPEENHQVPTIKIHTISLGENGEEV
row,SMILES,Ki
1,CC(C)n1nc(C(=O)NCCN2CCC(NC(=O)OCc3ccccc3)CC2)c2ccccc21 [N-(2-(4-((Benzyloxycarbonyl)amino)-1-piperidinyl)-ethyl)-1-isopropylindazole-3-carboxamide Oxalate],> 10 µM
2,CC(C)n1nc(C(=O)NC2CCN(CCNS(C)(=O)=O)CC2)c2ccccc21 [N-(1-(2-((N-Methylsulfonyl)amino)ethyl)piperidin-4-yl)-1-isopropylindazole-3-carboxamide Maleate],> 10 µM
3,CC(C)n1nc(C(=O)NC2CCN(Cc3ccccc3)CC2)c2ccccc21 [N-(1-Benzylpiperidin-4-yl)-1-isopropylindazole-3-carboxamide Hydrochloride],> 10 µM
